From patent US20040229817A1, “Inhibitors of Hepatitis C virus, compositions and treatments using the same” (priority 2003, published 2004)
Like-named read-outs stand apart in the source and are kept apart here.

Key:
in vitro = assay type: cell-based; conditions: human, three days incubation
Experimental: (§1) All compounds were tested in an HCV reporter replicon assay. Briefly, a reporter replicon containing Huh-7 hepatoma cells was grown in DMEM (Invitrogen, Carlsbad, Calif.) and seeded in 96-well black wall, clear-bottom plates (Costar®; Coming Incorporated). Cells were allowed to settle at 37° C., 5% CO2 for 30 minutes. The compounds were serially diluted in separate 96 well plates and […] of each concentration was added to the appropriate well in triplicate. The plates are incubated at 37° C., 5% CO2 for three days.
(§2) Following three days of incubation, the media was aspirated from the wells and cells are washed with 100 μl PBS. After removing the PBS, 20 μl of 1× Passive Lysis Buffer (Promega Corp., Madison, Wis.) is added to each well, and the cells are allowed to lyse at room temperature for 15 minutes. Antiviral activity and cytotoxicity is measured following lysis using the dual luciferase kit (Promega Corp., Madison, Wis.). The percent antiviral inhibition and percent cytotoxicity for each concentration is calculated after subtracting the background values of media only wells from wells containing cells, and subtratcting 100 from the percent ratio of the value in the compound well to the cell only control well.

[1] = Solubility (Sol.) reported with the replicon assay
HCV reporter replicon = HCV reporter replicon assay, antiviral activity (dual luciferase); assay type: cell-based; conditions: for EC50: Hepatitis C virus
Experimental: as §1, §2

[2] = 7-pt Assay, value marked (exp), read-out: EC50 (exp)
[3] = Huh-7, 72 h, Extended 8-pt Assay, replicon-containing Huh-7 cells, three days incubation, read-out: EC50
[4] = Huh-7, 72 h, 7-pt Assay, replicon-containing Huh-7 cells, three days incubation, read-out: EC50

SMILES	CC50 at 3 days (in vitro; 7-pt Assay)	CC50 at 3 days (in vitro; Extended 8-pt Assay)	Sol. ([1]; 7-pt Assay)	Sol. ([1]; 7-pt Assay, unit not given)	Sol. ([1]; Extended 8-pt Assay)	CC50/EC50 (HCV reporter replicon; 7-pt Assay)	EC50 (HCV reporter replicon; [2])	EC50 (HCV reporter replicon; [3])	EC50 (HCV reporter replicon; [4])
O=C(NO)[C@H]1CCCC[C@@H]1SCCc1ccc(-c2ccccc2)cc1 (relative stereo) [Example 6, trans-2-(Biphenyl-4-yl-ethylsulfanyl)cyclohexanecarboxylic Acid Hydroxyamide]	111000 nM	99000 nM	>320 µM	320	>320 µM	3265	34 nM	50 nM	
O=C(NO)C1=C(SCCc2ccc(-c3ccccc3)cc2)CCCC1 [Example 1, 2-(2-Biphenyl-4-yl-ethylsulfanyl)-cyclohex-1-ene-carboxylic Acid Hydroxyamide]	32000 nM	31000 nM	<320 µM	100	>320 µM	15		1600 nM	2100 nM
O=C(NO)[C@@H]1CCCC[C@@H]1SCCc1ccccc1 [Example 3]	≥ 320000 nM	211000 nM	>320 µM	320	>320 µM	130		1900 nM	2500 nM
O=C(NO)[C@@H]1CCCC[C@H]1S(=O)(=O)CCc1ccccc1 [Example 5, trans-2-Phenylethanesulfonyl-cyclohexanecarboxylic Acid Hydroxyamide]	> 320000 nM	> 320000 nM	>320 µM	320	>320 µM	1333	240 nM	310 nM	
COC(=O)c1ccc(NC(=O)[C@H](CC(C)C)NC(=O)[C@@H](CC(=O)NO)c2ccccc2)cc1 [Example 8, methyl 4-({N-[(2S)-4-(hydroxyamino)-4-oxo-2-phenylbutanoyl]-L-leucyl}amino)benzoate]	> 320000 nM	> 320000 nM	<100 µM	32	<320 µM	218		1200 nM	1500 nM
CC(=O)N1CCN(S(=O)(=O)c2ccc(Oc3ccccc3)cc2)C(C(=O)NO)C1 (stereo not shown) [Example 9, 4-acetyl-N-hydroxy-1-[(4-phenoxyphenyl)sulfonyl]piperazine-2-carboxamide]	81000 nM	79000 nM	>320 µM	320	>320 µM	835	97 nM	18 nM	
CC(C)(C)OC(=O)N1CCN(S(=O)(=O)c2ccc(Oc3ccccn3)cc2)[C@@H](C(=O)NO)C1 [Example 10, tert-butyl (3R)-3-[(hydroxyamino)carbonyl]-4-{[4-(pyridin-2-yloxy)phenyl]sulfonyl}piperazine-1-carboxylate]	294000 nM	224000 nM	>320 µM	320	>320 µM	1937	150 nM	190 nM	
CS(=O)(=O)N1CCN(S(=O)(=O)c2ccc(Oc3ccc(F)cc3)cc2)[C@@H](C(=O)NO)C1 [Example 11, (2R)-1-{[4-(4-fluorophenoxy)phenyl]sulfonyl}-N-hydroxy-4-(methylsulfonyl)piperazine-2-carboxamide]	12000 nM	15000 nM	>320 µM	320	>320 µM	444	27 nM	49 nM	
CC1(C)SCCN(S(=O)(=O)c2ccc(Oc3ccncc3)cc2)[C@H]1C(=O)NO [Example 12, (3S)—N-hydroxy-2,2-dimethyl-4-{[4-(pyridin-4-yloxy)phenyl]sulfonyl}thiomorpholine-3-carboxamide]	320000 nM	> 320000 nM	>320 µM	320	>320 µM	880		260 nM	360 nM
O=C(NO)C1CCCCN1S(=O)(=O)c1ccc(Sc2ccncc2)cc1 (stereo not shown) [Example 13, N-hydroxy-1{[4-(pyridin-4-ylthio)phenyl]sulfonyl}piperidine-2-carboxamide]	293000 nM	211000 nM	>320 µM	320	>320 µM	667		350 nM	440 nM
Cc1cc(CSC(C)(C)[C@@H](NS(=O)(=O)c2ccc(Oc3ccc(Br)cc3)cc2)C(=O)NO)no1 [Example 14, N^2-{[4-(4-bromophenoxy)phenyl]sulfonyl}-N^1-hydroxy-3{[(5-methylisoxazol-3-yl)methyl]thio}-D-valinamide]	78000 nM	41000 nM	>320 µM	320	<320 µM	49		1900 nM	1570 nM
